Where “and” joins values, the source holds several entries; their conditions need not be identical. Equal entries are not always repeated.
Settings: Liquid, Pycnometric method

FC(F)C(F)(F)OCC(F)(F)F [2,2,2-trifluoroethyl 1,1,2,2-tetrafluoroethyl ether]
Settings | mass density
342.15 K, 16809 kPa | 1418.3 kg/m3
342.15 K, 16812 kPa | 1418.3 kg/m3
343.15 K, 17505 kPa | 1418.1 kg/m3
343.15 K, 17508 kPa | 1418.1 kg/m3
344.15 K, 18201 kPa | 1418 kg/m3
344.15 K, 18203 kPa | 1418 kg/m3
345.15 K, 18896 kPa | 1417.8 kg/m3
345.15 K, 18898 kPa | 1417.8 kg/m3
346.15 K, 19590 kPa | 1417.7 kg/m3
346.15 K, 19592 kPa | 1417.7 kg/m3
347.15 K, 20282 kPa | 1417.5 kg/m3
347.15 K, 20287 kPa | 1417.6 kg/m3
348.15 K, 20974 kPa | 1417.4 kg/m3
348.15 K, 20978 kPa | 1417.4 kg/m3
349.15 K, 21666 kPa | 1417.3 kg/m3
349.15 K, 21671 kPa | 1417.3 kg/m3
350.15 K, 22357 kPa | 1417.1 kg/m3
350.15 K, 22360 kPa | 1417.2 kg/m3
351.15 K, 23047 kPa | 1417 kg/m3
351.15 K, 23050 kPa | 1417 kg/m3
352.15 K, 23735 kPa | 1416.9 kg/m3
352.15 K, 23739 kPa | 1416.9 kg/m3
353.15 K, 24423 kPa | 1416.8 kg/m3
353.15 K, 24426 kPa | 1416.8 kg/m3
354.15 K, 25110 kPa | 1416.6 kg/m3
354.15 K, 25114 kPa | 1416.7 kg/m3
355.15 K, 25797 kPa | 1416.5 kg/m3
355.15 K, 25801 kPa | 1416.5 kg/m3
356.15 K, 26482 kPa | 1416.4 kg/m3
356.15 K, 26486 kPa | 1416.4 kg/m3
357.15 K, 27166 kPa | 1416.3 kg/m3
357.15 K, 27171 kPa | 1416.3 kg/m3
358.15 K, 27851 kPa | 1416.2 kg/m3
358.15 K, 27855 kPa | 1416.2 kg/m3
359.15 K, 5632 kPa | 1334.4 kg/m3
359.15 K, 5637 kPa | 1334.4 kg/m3
359.15 K, 28535 kPa | 1416.1 kg/m3
359.15 K, 28538 kPa | 1416.1 kg/m3
360.15 K, 6174 kPa | 1334.2 kg/m3
360.15 K, 6180 kPa | 1334.2 kg/m3
360.15 K, 29217 kPa | 1415.9 kg/m3
360.15 K, 29220 kPa | 1416 kg/m3
361.15 K, 6718 kPa | 1334.1 kg/m3
361.15 K, 6724 kPa | 1334.1 kg/m3
361.15 K, 29899 kPa | 1415.8 kg/m3
361.15 K, 29902 kPa | 1415.9 kg/m3
362.15 K, 7261 kPa | 1333.9 kg/m3
362.15 K, 7266 kPa | 1333.9 kg/m3
363.15 K, 7803 kPa | 1333.8 kg/m3
363.15 K, 7809 kPa | 1333.8 kg/m3
364.15 K, 8346 kPa | 1333.6 kg/m3
364.15 K, 8350 kPa | 1333.6 kg/m3
365.15 K, 8888 kPa | 1333.5 kg/m3
365.15 K, 8892 kPa | 1333.5 kg/m3
366.15 K, 9430 kPa | 1333.3 kg/m3
366.15 K, 9434 kPa | 1333.4 kg/m3
367.15 K, 9971 kPa | 1333.2 kg/m3
367.15 K, 9976 kPa | 1333.2 kg/m3
368.15 K, 10512 kPa | 1333.1 kg/m3
368.15 K, 10516 kPa | 1333.1 kg/m3
369.15 K, 11053 kPa | 1332.9 kg/m3
369.15 K, 11057 kPa | 1332.9 kg/m3
370.15 K, 11593 kPa | 1332.8 kg/m3
370.15 K, 11598 kPa | 1332.8 kg/m3
371.15 K, 12133 kPa | 1332.7 kg/m3
371.15 K, 12137 kPa | 1332.7 kg/m3
372.15 K, 12673 kPa | 1332.5 kg/m3
372.15 K, 12677 kPa | 1332.6 kg/m3
373.15 K, 13212 kPa | 1332.4 kg/m3
373.15 K, 13216 kPa | 1332.4 kg/m3
374.15 K, 13752 kPa | 1332.3 kg/m3
374.15 K, 13756 kPa | 1332.3 kg/m3
375.15 K, 14290 kPa | 1332.2 kg/m3
375.15 K, 14294 kPa | 1332.2 kg/m3
376.15 K, 14828 kPa | 1332 kg/m3
376.15 K, 14831 kPa | 1332 kg/m3
377.15 K, 15366 kPa | 1331.9 kg/m3
377.15 K, 15369 kPa | 1331.9 kg/m3
378.15 K, 15904 kPa | 1331.8 kg/m3
378.15 K, 15906 kPa | 1331.8 kg/m3
379.15 K, 16441 kPa | 1331.7 kg/m3
379.15 K, 16443 kPa | 1331.7 kg/m3
380.15 K, 16977 kPa | 1331.5 kg/m3
380.15 K, 16980 kPa | 1331.5 kg/m3
381.15 K, 17514 kPa | 1331.4 kg/m3
381.15 K, 17515 kPa | 1331.4 kg/m3
382.15 K, 18050 kPa | 1331.3 kg/m3
382.15 K, 18051 kPa | 1331.3 kg/m3
383.15 K, 18585 kPa | 1331.2 kg/m3
383.15 K, 18586 kPa | 1331.2 kg/m3
384.15 K, 19120 kPa | 1331.1 kg/m3
384.15 K, 19121 kPa | 1331.1 kg/m3
385.15 K, 19655 kPa | 1330.9 kg/m3
385.15 K, 19656 kPa | 1330.9 kg/m3
386.15 K, 20189 kPa | 1330.8 kg/m3
387.15 K, 20723 kPa | 1330.7 kg/m3
388.15 K, 21256 kPa | 1330.6 kg/m3
389.15 K, 21789 kPa | 1330.5 kg/m3
390.15 K, 22322 kPa | 1330.4 kg/m3
391.15 K, 22854 kPa | 1330.3 kg/m3
391.15 K, 22855 kPa | 1330.3 kg/m3
392.15 K, 23385 kPa | 1330.2 kg/m3
392.15 K, 23386 kPa | 1330.2 kg/m3
393.15 K, 23917 kPa | 1330 kg/m3 and 1330.1 kg/m3
394.15 K, 24448 kPa | 1329.9 kg/m3
395.15 K, 24978 kPa | 1329.8 kg/m3
396.15 K, 25507 kPa | 1329.7 kg/m3
396.15 K, 25508 kPa | 1329.7 kg/m3
397.15 K, 26037 kPa | 1329.6 kg/m3
397.15 K, 26038 kPa | 1329.6 kg/m3
398.15 K, 26566 kPa | 1329.5 kg/m3
398.15 K, 26567 kPa | 1329.5 kg/m3
399.15 K, 27094 kPa | 1329.4 kg/m3
399.15 K, 27096 kPa | 1329.4 kg/m3
400.15 K, 27622 kPa | 1329.3 kg/m3
400.15 K, 27623 kPa | 1329.3 kg/m3
401.15 K, 28150 kPa | 1329.2 kg/m3
401.15 K, 28151 kPa | 1329.2 kg/m3
402.15 K, 28677 kPa | 1329.1 kg/m3
402.15 K, 28678 kPa | 1329.2 kg/m3
403.15 K, 29204 kPa | 1329 kg/m3
403.15 K, 29205 kPa | 1329.1 kg/m3
404.15 K, 29730 kPa | 1329 kg/m3
404.15 K, 29732 kPa | 1329 kg/m3
